# Experimental data: paper PMC9002018, “The Antimicrobial Peptide MPX Can Kill Staphylococcus aureus, Reduce Biofilm Formation, and Effectively Treat Bacterial Skin Infections in Mice” (Frontiers in Veterinary Science, 2022)
# Where no end group is shown, it is not given here.
# Experiments:
# S. aureus ATCC 25923 [1] = assay: Electron microscopy (SEM, TEM) of bacterial morphology; assay type: cell-based, Staphylococcus aureus
# Method: (§1) A sterile slides were placed in 6-well cell culture plates and bacteria were allowed to grow naturally on the slides to form a biofilm. Overnight culture broth and fresh broth were added at a volume ratio of 1:100, and incubated at 37°C for 24 h. Different final concentrations of MPX (1×MIC, 4×MIC) were added, incubation was continued. Then, a 2.5% glutaraldehyde solution was added to each well, and the cells were fixed at room temperature for 30 min. The plate was rinsed 3 times with PBS for 10 min each time. Gradient dehydration was performed with increasing concentrations of an ethanol solution (30, 50, 70, 80, 90, 95, and 100%). After ion spray gold coating, biofilm formation was observed by scanning electron microscopy (SEM) ([17]).
# Transmission electron microscopy (TEM) was used to detect the bacterial structure changes after MPX acted on S. aureus ATCC 25923. S. aureus was cultured overnight. MPX was added to different final concentrations. The cells were incubated with shaking at 37°C for 2 h, and then sodium phosphotungstate was used for negative staining. The effect of AMPs on S. aureus was observed. Centrifugation, fixation, dehydration, soaking, embedding and polymerization, sectioning and staining of the culture were performed. Finally, a transmission electron microscope was used to observe the results.
# trypsin = assay: Protease stability assay with trypsin, read by agar diffusion; assay type: in vitro ADME; details: MPX 1.3 μM, 37°C, 30 min
# Method: (§2) An MPX protease stability assay was performed in the following manner. MPX (1.3 μM) was mixed with equal volumes of proteinase K and trypsin at different concentrations. After incubating at 37°C for 30 min, the samples were incubated in a boiling water bath for 5 min to stop the protease reaction. The protease stability of MPX was detected by the agar diffusion assay.
# S. aureus [2] = assay: Propidium iodide uptake (fluorescence microscopy); assay type: cell-based, Staphylococcus aureus; details: MPX 4×MIC for 0.5 h, compared with group without peptide
# Method: S. aureus was centrifuged, washed, and resuspended in sterile PBS. MPX (4×MIC) was added to the bacterial solution. The bacteria were cultured with shaking at 37°C and then centrifuged and resuspended in PBS solution. The cells were incubated with propidium iodide (PI) stain for 10 min in the dark. The suspension was fixed on a clean glass slide and observed with a fluorescence microscope.
# S. aureus ATCC 25923 [3] = assay: BCA protein assay of bacterial supernatant (protein leakage); assay type: cell-based, Staphylococcus aureus; details: MPX (1×MIC, 4×MIC) for 5 min, BCA kit, P < 0.01, n = 3
# Method: S. aureus was cultured overnight, washed and resuspended in sterile PBS. MPX (1×MIC, 4×MIC) was added to the bacterial solution. Sterile water was added as a control. A peptide-only group was a negative control. The mixture was allowed to stand for 5 min, and the supernatant was collected after centrifugation. The effect of MPX on the permeability of S. aureus ATCC 25923 for protein was analyzed according to the instructions of the BCA kit.
# S. aureus ATCC 25923 [4] = assay: DiSC3-5 assay for membrane potential; assay type: cell-based, Staphylococcus aureus; details: MPX 1×MIC
# Method: Overnight-cultured S. aureus ATCC 25923 was centrifuged and resuspended in sterile PBS. A DiSC3-5 solution was added to a final concentration of 1 μM. The cells were incubated in the dark for 20 min. MPX (1×MIC, 2×MIC and 4×MIC) was added. Sterile water was used as the control, and AMP ([…]/50 μg/mL) was used as the positive control. The excitation wavelength was 622 nm, the emission wavelength was 670 nm, and the fluorescence intensity was detected by a microplate reader.
# S. aureus ATCC 25923 [5] = assay: NPN uptake (membrane integrity); assay type: cell-based, Staphylococcus aureus; details: MPX 0.02 μM (1×MIC), NPN 10 μM, ex 350 nm / em 420 nm, 0–10 min; comparator ampicillin 50 μg/mL
# Method: S. aureus ATCC 25923 was cultured overnight in a 96-well plate. An NPN solution was added to a final concentration of 10 μM. The solutions were mixed well and incubated for 20 min. MPX (1×MIC, 4×MIC) was added to the wells. Sterile water was used as the control, and ampicillin (Amp) ([…]/50 μg/mL) was used as the positive control. The excitation wavelength was 350 nm, the emission wavelength was 420 nm, and the fluorescence intensity was detected by a microplate reader ([13]).
# A. pleuropneumoniae = details: previous experiment of the same laboratory; cited from earlier work
# From the text: S. aureus can cause a wide range of infections, which can lead to organ failure and death in severe cases. It is one of the most common pathogens in communities and hospitals worldwide. The emergence and rapid spread of methicillin-resistant S. aureus strains have produced great challenges for clinical treatment. According to reports, patients with methicillin-resistant S. aureus infection have an increased clinical risk, especially an increased risk of mortality ([18]). Therefore, we must strengthen the prevention of MDR S. aureus infection, find effective alternatives to antibiotics, and ide ...
# S. aureus ATCC 25923 [6] = assay: Time-killing curve (OD600 and plate counting); assay type: cell-based, Staphylococcus aureus; details: 37°C
# Method: S. aureus was cultivated, the OD600 of the bacterial solution was adjusted to approximately 1.0, and MPX (1×MIC, 4×MIC) was added. In addition, sterile water was used as a control. The samples were incubated with shaking at 37°C. The OD600 value of the bacterial solution was measured every 1 h, and plate counting was performed at the same time to obtain the antibacterial time-killing curve of MPX against S. aureus ATCC 25923 ([15]).
# [7] = system: S. aureus ATCC 25923 biofilm; assay: Biofilm observation by SEM and confocal laser microscopy (SYTO 9/PI); assay type: cell-based, Staphylococcus aureus; details: MPX 4×MIC added to 24 h biofilm
# Method: S. aureus ATCC 25923 was cultivated as described above. After culturing in a 37°C incubator for 24 h, MPX (final concentration: 4×MIC) was added to the sample. […] S. aureus was washed 3 times with 0.85% NaCl to remove nucleic acids and other medium components. A LIVE/DEAD BacLight Bacterial Viability L-7012 Kit (Molecular Probes, Eugene, OR, USA), containing two component dyes (SYTO 9 and PI in a 1:1 mixture) in solution, was used prior to microscopy and quantitative assays according to the test instructions. A total of 3 μL of the dye mixture was added to each well, the wells were incubated at room temperature in the dark for 15 min, and the bacterial survival in the biofilm was observed by confocal laser microscopy.
# as §1, with “After ion spray gold coating, biofilm formation was observed by scanning electron microscopy (SEM) ([17]).” left out
# S. aureus ATCC 25923 [8] = assay: Agar diffusion test of antibacterial activity; assay type: cell-based, Staphylococcus aureus; details: 1 mg/mL MPX, 20 μL per well, overnight at 37°C; sterile water control had no zone
# Method: The agar diffusion test was used to detect the antibacterial effect of MPX on S. aureus ATCC 25923. S. aureus ATCC 25923 was cultured overnight, and the supernatant was discarded by centrifugation. The bacteria were washed with sterile PBS, and resuspended in a smaller volume to concentrate the cells. Next, 50 μL of the bacterial solution was pipetted into 15 mL of agar and shaken gently to mix. The plate was poured, a puncher was used to make holes after the agar medium had solidified and 20 μL of 1 mg/mL MPX was added to the wells. Sterile water was used as a control. The plates were incubated overnight at 37°C and the results were observed.
# [9] = system: S. aureus ATCC 25923 biofilm; assay: Crystal violet assay of biofilm formation; assay type: cell-based, Staphylococcus aureus; details: MPX 0.5×MIC, 24 h at 37°C, p < 0.01, n = 3
# Method: An overnight culture of S. aureus was inoculated into a 96-well polystyrene microtiter plate at a ratio of 1%. MPX (0.25×MIC, 0.5×MIC and 1×MIC) was added to the wells. Sterile water was used as a control. The plates were incubated at 37°C for 24 h. The microplates were then washed 3 times with sterile PBS, and the cells were fixed with 70% methanol for 30 min. Then, the cells were stained with 1% Hucker crystal violet staining solution at room temperature for 5 min. The dyeing solution was aspirated, and the cells were rinsed with water until no color remained. Images were acquired after drying. Then, 100 μL of a 70% ethanol solution was added to each well to dissolve the residual dye, and a microplate reader was used to measure the absorbance at OD570 nm ([16]).
# proteinase K = proteinase K (Parengyodontium album, UniProt P06873); assay: Protease stability assay with proteinase K, read by agar diffusion; assay type: in vitro ADME; details: MPX 1.3 μM, 37°C, 30 min
# Method: as §2
# S. aureus [10] = assay: Stability to salt ions, pH, temperature and repeated freezing and thawing, read by agar diffusion; assay type: physicochemical, Staphylococcus aureus; details: n = 3
# Method: […] Solutions with different pH values were prepared with HCl and NaOH, producing pH values of 4, 5, 6, 7, 8, 9, 10, and MPX was incubated in these solutions for 30 min. MPX solutions were also incubated at different temperatures for 30 min (0, 25, 50, 75, and 100°C). A 1 mg/mL MPX solution was repeatedly frozen and thawed 0, 2, 4, 6, 8, 10, and 12 times. Ten microlitres of each of the peptide solutions treated as described above was collected, and the changes in the antimicrobial activity of the AMPs were detected by the agar diffusion assay.
# proteinase K, sequence (P06873 106-384, species assumed): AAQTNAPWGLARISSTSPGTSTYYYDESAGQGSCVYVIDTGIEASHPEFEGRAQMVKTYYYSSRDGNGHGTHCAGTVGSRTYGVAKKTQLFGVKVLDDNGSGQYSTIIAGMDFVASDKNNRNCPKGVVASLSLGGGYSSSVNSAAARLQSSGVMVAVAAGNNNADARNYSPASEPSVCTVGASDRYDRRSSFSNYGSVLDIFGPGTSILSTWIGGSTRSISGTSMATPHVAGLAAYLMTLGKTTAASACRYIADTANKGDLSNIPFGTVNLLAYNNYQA
substance,measurement,setting,value
INWKGIAAMAKKLL-NH2 [MPX],bacterial morphology (SEM/TEM),S. aureus ATCC 25923 [1]; MPX 1×MIC,shrink and leak cell contents
same,cell membrane of S. aureus (TEM),"S. aureus ATCC 25923 [1]; MPX 4×MIC, 2 h at 37°C",severely damaged
same,effect of trypsin on antibacterial activity,"trypsin; 20 μg/mL trypsin, agar diffusion, n = 3",significantly reduce
same,residual antibacterial activity after trypsin,"trypsin; 100 μg/mL trypsin, equal volumes, agar diffusion vs S. aureus ATCC 25923, n = 3",19.6%
same,number of PI-stained bacteria,S. aureus [2],significantly increased
same,total protein content of bacterial culture supernatant,S. aureus ATCC 25923 [3],significantly higher than that of the control group
same,time to membrane depolarization (DiSC3-5),"S. aureus ATCC 25923 [4]; 4×MIC, DiSC3-5 1 μM, ex 622 nm / em 670 nm",≤ 10 s
same,DiSC3-5 fluorescence intensity compared with antibiotic AMP,S. aureus ATCC 25923 [4]; comparator AMP 50 μg/mL,higher than that produced by the antibiotic AMP
same,NPN fluorescence intensity (membrane integrity),S. aureus ATCC 25923 [5],significantly higher than that of the control group and the antibiotic AMP treatment group
same,effect of Ca2+ and Mg2+ on killing effect of MPX on A. pleuropneumoniae,A. pleuropneumoniae,significantly inhibit
same,inhibition in killing curve,"S. aureus ATCC 25923 [6]; MPX 1×MIC, within 5 h",relatively stable inhibition
same,bacteria killed (killing curve),"S. aureus ATCC 25923 [6]; MPX 4×MIC, within 1 h, start OD600 approx. 1.0, plate counting, n = 3",99.9%
same,"number of dead bacteria in the S. aureus biofilm (confocal, SYTO 9/PI)",[7],significantly increased
same,zone of inhibition (agar diffusion),S. aureus ATCC 25923 [8],produced a zone of inhibition
same,"S. aureus biofilm formation (crystal violet, OD570)",[9],significantly reduced
same,effect of proteinase K on antibacterial activity,"proteinase K; 40 μg/mL proteinase K, agar diffusion, n = 3",significantly reduced
same,residual antibacterial activity after proteinase K,"proteinase K; 100 μg/mL proteinase K, equal volumes, agar diffusion vs S. aureus ATCC 25923, n = 3",66.3%
same,effect of temperature on antibacterial activity of MPX (thermal stability),"S. aureus [10]; 0, 25, 50, 75 and 100°C for 30 min",basically no effect
same,effect of repeated freezing and thawing on antimicrobial activity of MPX,S. aureus [10]; 1 mg/mL MPX frozen and thawed 0–12 times,did not change significantly
same,effect of CaCl2 on antibacterial activity of MPX,"S. aureus [10]; CaCl2 50, 100, 150, 200 and 250 mmol/mL, incubated 30 min",no significant effect
same,effect of KCl on antibacterial activity of MPX,"S. aureus [10]; KCl 50, 100, 150, 200 and 250 mmol/mL, incubated 30 min",little effect
same,effect of MgCl2 on antibacterial activity of MPX,"S. aureus [10]; MgCl2 50, 100, 150, 200 and 250 mmol/mL, incubated 30 min",no significant effect
same,effect of NaCl on antibacterial activity of MPX,"S. aureus [10]; NaCl 50, 100, 150, 200 and 250 mmol/mL, incubated 30 min",little effect
same,effect of pH on MPX activity,"S. aureus [10]; pH 4–10 (HCl/NaOH), incubated 30 min",basically no effect
